Results: US5002958A, “Hypotensive agent” (priority 1987, dated 1991)
Structures can show the parent of a compound that is named as a salt.

How the values were obtained:
[1] = system: dogs suffering from Goldblatt hypertension; assay: Effect of single oral administration on blood pressure of dogs suffering from Goldblatt hypertension; assay type: in vivo, Female beagles; details: 10 mg/kg oral; for reduction in the blood pressure / blood pressure after 3 h: once, after 3 h; for reduction in the blood pressure: result in words; for blood pressure after 3 h / blood pressure before administration: systolic pressure; for blood pressure after 3 h: control group 201±3 mmHg, unchanged after 5 h; for blood pressure before administration: artery of the tail
Method: Nicardipine hydrochloride was used as a control. The dose was 5 ml/kg.

[2] = Acute toxicity (LD50) in mice; details: mouse, in vivo, Mice (ICR)
[3] = Acute toxicity (LD50) in rats; details: rat, in vivo, Rats (SD)
[4] = Acute toxicity (LD50) in dogs; details: dog, in vivo, po, Dogs (Beagles)
[5] = Solubility (physico-chemical properties); assay type: physicochemical
[6] = system: dogs suffering from Goldblatt hypertension; details: 10 mg/kg oral
Method: Nicardipine hydrochloride was used as a control. The dose was 5 ml/kg. Commercially available tablets were given as they were by oral administration. Female beagles suffering from Goldblatt hypertension of "one clip one kidney" type were used. […] The blood pressure and heart rate were measured in the artery of the tail of each dog in a closed manner with a device for continuously measuring the systolic pressure (SCS-301; a product of Shimadzu Seisakusho Ltd.). […] The effects of eperisone hydrochloride given once by oral administration on the blood pressure and heart beat were compared with those of nicardipine hydrochloride. The nine beagles were divided into three groups, i.e. a control group, a group to which 10 mg/kg of eperisone hydrochloride was given and another group to which 10 mg/kg of nicardipine hydrochloride was given. Nine beagles were subjected to the tests of all three groups. Namely, administration was discontinued at intervals of one week according to Latin square. The blood pressure and heart rate were measured before administration and then at specified intervals from one hour to five hours after administration. The analysis of variance was conducted by the time series analysis. The test groups were compared with the control group by Dunnet's method.

| Structure (SMILES) | reduction in the blood pressure [1] | blood pressure after 3 h [1] [mmHg] | blood pressure before administration [1] [mmHg] | LD50 ([2]; iv, female) [mg/kg] | LD50 ([2]; iv, male) [mg/kg] | LD50 ([2]; po, female) [mg/kg] | LD50 ([2]; po, male) [mg/kg] | LD50 ([3]; iv, female) [mg/kg] | LD50 ([3]; iv, male) [mg/kg] | LD50 ([3]; po, female) [mg/kg] | LD50 ([3]; po, male) [mg/kg] | LD50 ([4]; female) [mg/kg] | LD50 ([4]; male) [mg/kg] | solubility in acetic anhydride ([5]; acetic anhydride) | solubility in acetone ([5]; acetone) | solubility in ethanol ([5]; ethanol) | solubility in ether ([5]; ether) | solubility in water, methanol, chloroform or glacial acetic acid ([5]; water, methanol, chloroform or glacial acetic acid) | solubility in water ([5]; water, agents used in the pharmacological experiment) | heart rate before administration [6] [beats/min] |
| --- | --- | --- | --- | --- | --- | --- | --- | --- | --- | --- | --- | --- | --- | --- | --- | --- | --- | --- | --- | --- |
| CCc1ccc(C(=O)C(C)CN2CCCCC2)cc1 (stereo not drawn) [eperisone hydrochloride, Eperisone hydrochloride] | a significant reduction in the blood pressure was observed | 172±3 | 202±4 | 43.5 | 43 | 940 | 1040 | 60 | 51 | 1300 | 1300 | > 750 | > 1080 | relatively difficultly soluble | difficultly soluble | relatively easily soluble | scarcely soluble | easily soluble | water-soluble | 97±5 |
| COC(=O)C1=C(C)NC(C)=C(C(=O)OCCN(C)Cc2ccccc2)C1c1cccc([N+](=O)[O-])c1 (stereo not drawn) [nicardipine hydrochloride, Nicardipine hydrochloride, reference compound] | a significant reduction in the blood pressure was also observed | 164±4 | 200±4 |  |  |  |  |  |  |  |  |  |  |  |  |  |  |  |  | 106±7 |
